Experimental data from ChEMBL document CHEMBL5291721, “A preclinical secondary pharmacology resource illuminates target-adverse drug reaction associations of marketed drugs” (Nat Commun, 2023).

How the values were obtained:
[1] = target: Sodium-dependent dopamine transporter (Homo sapiens, UniProt Q01959)
Glucocorticoid receptor = target: T1, Glucocorticoid receptor (Homo sapiens, UniProt P04150)
T1 sequence (P04150 whole entry): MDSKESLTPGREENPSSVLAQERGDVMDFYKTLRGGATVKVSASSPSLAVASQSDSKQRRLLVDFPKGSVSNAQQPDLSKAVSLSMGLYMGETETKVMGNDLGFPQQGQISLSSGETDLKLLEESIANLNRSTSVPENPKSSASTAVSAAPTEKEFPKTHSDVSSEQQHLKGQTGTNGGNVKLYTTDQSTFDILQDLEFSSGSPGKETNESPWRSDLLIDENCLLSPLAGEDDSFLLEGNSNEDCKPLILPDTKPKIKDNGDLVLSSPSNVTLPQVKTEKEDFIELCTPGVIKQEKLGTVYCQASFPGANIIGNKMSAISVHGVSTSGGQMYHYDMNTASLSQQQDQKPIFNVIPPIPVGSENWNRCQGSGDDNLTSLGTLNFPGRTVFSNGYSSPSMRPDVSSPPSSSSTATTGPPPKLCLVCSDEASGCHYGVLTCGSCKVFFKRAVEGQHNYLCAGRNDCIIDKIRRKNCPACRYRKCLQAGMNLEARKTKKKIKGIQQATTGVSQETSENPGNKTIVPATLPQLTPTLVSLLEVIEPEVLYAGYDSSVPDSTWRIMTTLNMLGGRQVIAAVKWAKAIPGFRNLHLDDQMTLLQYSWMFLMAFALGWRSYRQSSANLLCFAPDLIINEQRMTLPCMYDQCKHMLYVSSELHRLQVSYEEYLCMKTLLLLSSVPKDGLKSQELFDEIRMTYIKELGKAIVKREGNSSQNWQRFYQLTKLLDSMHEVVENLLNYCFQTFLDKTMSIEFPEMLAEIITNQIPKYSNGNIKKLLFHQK

[2] = target: Sodium-dependent serotonin transporter (Homo sapiens, UniProt P31645)
[3] = target: T2, Gastrin/cholecystokinin type B receptor (Homo sapiens, UniProt P32239)
T2 sequence (P32239 whole entry): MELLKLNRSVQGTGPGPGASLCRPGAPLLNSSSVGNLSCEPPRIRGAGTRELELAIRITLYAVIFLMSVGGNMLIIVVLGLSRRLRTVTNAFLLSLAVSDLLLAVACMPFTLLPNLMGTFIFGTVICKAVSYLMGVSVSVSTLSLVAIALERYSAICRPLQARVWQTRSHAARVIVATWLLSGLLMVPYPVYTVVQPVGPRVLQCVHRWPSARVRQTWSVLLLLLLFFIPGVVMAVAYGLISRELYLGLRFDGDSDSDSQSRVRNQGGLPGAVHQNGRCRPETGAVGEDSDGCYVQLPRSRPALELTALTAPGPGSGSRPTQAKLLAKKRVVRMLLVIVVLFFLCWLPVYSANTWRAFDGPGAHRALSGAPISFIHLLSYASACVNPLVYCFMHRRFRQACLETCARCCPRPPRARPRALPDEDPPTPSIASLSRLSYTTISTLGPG

[4] = target: T3, Type-1 angiotensin II receptor (Homo sapiens, UniProt P30556)
T3 sequence (P30556 whole entry): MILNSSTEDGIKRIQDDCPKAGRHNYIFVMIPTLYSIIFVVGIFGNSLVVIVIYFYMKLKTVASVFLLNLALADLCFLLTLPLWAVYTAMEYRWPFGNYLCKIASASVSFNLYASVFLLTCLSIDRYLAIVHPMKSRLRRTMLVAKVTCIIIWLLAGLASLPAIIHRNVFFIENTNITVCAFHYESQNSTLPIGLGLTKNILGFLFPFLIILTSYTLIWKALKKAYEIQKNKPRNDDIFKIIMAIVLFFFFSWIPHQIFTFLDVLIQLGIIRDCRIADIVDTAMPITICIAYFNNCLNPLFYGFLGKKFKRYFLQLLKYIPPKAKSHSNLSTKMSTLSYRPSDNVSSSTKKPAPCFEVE

Melanocortin receptor 3 = Melanocortin receptor 3 (Homo sapiens, UniProt P41968)
Progesterone receptor = target: T4, Progesterone receptor (Homo sapiens, UniProt P06401); assay type: functional
T4 sequence (P06401 whole entry): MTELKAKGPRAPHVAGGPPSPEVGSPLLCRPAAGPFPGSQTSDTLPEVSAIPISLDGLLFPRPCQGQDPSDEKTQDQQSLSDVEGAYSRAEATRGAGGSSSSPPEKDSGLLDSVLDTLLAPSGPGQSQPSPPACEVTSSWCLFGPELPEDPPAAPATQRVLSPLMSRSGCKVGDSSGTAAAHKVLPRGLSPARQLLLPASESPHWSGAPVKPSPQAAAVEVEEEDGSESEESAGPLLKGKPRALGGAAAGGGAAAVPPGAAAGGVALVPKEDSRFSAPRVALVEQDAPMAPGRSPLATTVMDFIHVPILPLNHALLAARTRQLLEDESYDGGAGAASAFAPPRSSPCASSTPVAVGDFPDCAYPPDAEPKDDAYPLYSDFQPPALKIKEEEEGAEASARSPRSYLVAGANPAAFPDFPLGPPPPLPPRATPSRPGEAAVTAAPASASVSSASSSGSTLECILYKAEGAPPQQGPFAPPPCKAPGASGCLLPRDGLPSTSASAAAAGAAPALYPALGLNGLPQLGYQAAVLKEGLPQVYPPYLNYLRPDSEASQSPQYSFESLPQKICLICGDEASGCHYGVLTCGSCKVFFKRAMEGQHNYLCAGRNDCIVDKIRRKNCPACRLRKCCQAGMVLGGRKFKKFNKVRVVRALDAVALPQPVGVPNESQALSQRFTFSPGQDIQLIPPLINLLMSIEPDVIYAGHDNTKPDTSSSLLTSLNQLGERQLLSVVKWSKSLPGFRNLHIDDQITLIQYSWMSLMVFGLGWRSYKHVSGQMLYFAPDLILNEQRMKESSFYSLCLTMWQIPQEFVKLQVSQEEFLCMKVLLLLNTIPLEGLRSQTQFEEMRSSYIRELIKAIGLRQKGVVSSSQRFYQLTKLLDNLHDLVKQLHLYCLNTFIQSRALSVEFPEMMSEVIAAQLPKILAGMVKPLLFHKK
Further: assay procedure not described here.

Sequence of Melanocortin receptor 3 (P41968 whole entry): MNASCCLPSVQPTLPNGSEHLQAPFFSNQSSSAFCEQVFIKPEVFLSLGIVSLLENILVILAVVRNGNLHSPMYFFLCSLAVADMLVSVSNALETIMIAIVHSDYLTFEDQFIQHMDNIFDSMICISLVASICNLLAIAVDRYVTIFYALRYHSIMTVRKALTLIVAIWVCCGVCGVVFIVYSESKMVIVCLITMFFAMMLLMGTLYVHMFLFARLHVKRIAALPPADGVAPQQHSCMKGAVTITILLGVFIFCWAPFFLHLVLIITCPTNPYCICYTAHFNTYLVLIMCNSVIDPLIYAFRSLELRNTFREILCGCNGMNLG
Sequence of Sodium-dependent dopamine transporter (Q01959 whole entry): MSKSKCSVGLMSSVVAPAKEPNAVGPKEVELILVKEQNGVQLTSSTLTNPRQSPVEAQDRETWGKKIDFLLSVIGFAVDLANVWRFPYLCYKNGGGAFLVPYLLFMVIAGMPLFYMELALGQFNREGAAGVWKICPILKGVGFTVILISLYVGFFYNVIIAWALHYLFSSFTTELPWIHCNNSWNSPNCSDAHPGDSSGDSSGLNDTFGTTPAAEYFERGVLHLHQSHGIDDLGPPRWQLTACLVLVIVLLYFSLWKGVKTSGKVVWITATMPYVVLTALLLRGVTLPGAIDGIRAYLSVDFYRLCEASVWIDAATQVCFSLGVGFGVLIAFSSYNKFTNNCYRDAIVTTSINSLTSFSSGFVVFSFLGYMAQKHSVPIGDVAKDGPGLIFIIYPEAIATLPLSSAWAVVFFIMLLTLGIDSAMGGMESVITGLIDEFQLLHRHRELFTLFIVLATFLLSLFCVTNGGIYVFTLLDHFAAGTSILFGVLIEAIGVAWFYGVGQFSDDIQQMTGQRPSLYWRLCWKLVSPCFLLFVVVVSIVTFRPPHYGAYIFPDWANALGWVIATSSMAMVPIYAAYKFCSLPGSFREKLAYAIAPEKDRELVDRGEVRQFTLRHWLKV
Sequence of Sodium-dependent serotonin transporter (P31645 whole entry): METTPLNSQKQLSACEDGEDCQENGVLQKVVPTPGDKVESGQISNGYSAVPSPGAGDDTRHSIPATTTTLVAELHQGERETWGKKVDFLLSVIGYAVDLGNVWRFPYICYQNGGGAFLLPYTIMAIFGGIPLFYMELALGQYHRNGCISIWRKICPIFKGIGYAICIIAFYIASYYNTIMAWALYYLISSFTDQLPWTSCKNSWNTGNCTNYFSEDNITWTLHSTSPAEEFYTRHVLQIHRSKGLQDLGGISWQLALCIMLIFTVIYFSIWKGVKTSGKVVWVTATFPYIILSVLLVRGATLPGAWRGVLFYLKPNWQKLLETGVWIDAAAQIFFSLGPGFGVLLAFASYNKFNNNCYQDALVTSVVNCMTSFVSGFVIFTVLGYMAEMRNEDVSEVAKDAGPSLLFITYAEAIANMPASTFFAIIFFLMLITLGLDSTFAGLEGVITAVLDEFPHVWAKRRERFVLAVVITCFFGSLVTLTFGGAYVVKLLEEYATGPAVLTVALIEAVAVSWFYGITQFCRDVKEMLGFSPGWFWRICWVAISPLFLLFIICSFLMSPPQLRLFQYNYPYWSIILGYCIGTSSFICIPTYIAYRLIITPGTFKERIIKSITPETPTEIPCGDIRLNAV

| Structure (SMILES) | AC50 [1] | AC50 (Glucocorticoid receptor) | AC50 [2] | AC50 [3] | AC50 [4] | AC50 (Melanocortin receptor 3) | AC50 (Progesterone receptor) |
| --- | --- | --- | --- | --- | --- | --- | --- |
| NS(=O)(=O)c1ccc(N2CCCCS2(=O)=O)cc1 | > 30 µM | > 30 µM | > 30 µM | > 30 µM | > 30 µM | > 30 µM | > 30 µM |
| CCC(=O)O[C@H](CC(=O)O)C[N+](C)(C)C [LEVOCARNITINE PROPIONATE] | > 30 µM | > 30 µM | > 30 µM | > 30 µM | > 30 µM | > 30 µM | > 30 µM |
| C=C(c1ccccc1OCc1cccc(Cl)c1)n1ccnc1 [CROCONAZOLE] | > 30 µM | 3.46 µM | 16.8 µM | > 30 µM | > 30 µM | > 30 µM | > 30 µM |
